Reference: patent publication US8927572B2, “Crystal form I of salt of a dipeptidyl peptidase-IV inhibitor and preparation method and use thereof” (Xuanzhu Pharma Co., Ltd., priority 2011, dated 2015)
Where a name gives a salt, the structure may show the parent alone. Each block holds one molecule with its values, some of them ahead of it.

Legend:
[1] = In vivo pharmacokinetics in SD rats; parameters: species or system SD (Sprague Dwaley) rats
Description: (§1) Test sample: the crystal form I of dihydrochloride salt of Compound A prepared from Example 1.
Experimental Animals: SD (Sprague Dwaley) rats, quantity 12.
The SD rats were divided into two groups, namely Intravenous Injection group and Intragastric Administration group, and there were 6 rats in each group in which one half were female and the other were male. The dose administrated was always 10 mg/kg (in terms of Compound A). The volume administered by the intravenous injection route was 5 mL/kg, and the volume administered by the intragastric administration route was 10 mL/kg. The time points for sequential blood sampling were 0 minutes before administration (0 min), and 5 min, 15 min, 30 min, 1 h, 2 h, 4 h, 6 h, 8 h, 12 h and 24 h after administration. About 150 μL of blood was collected into a sodium heparin anticoagulation tube from the caudal vein or Inner canthus vein after administration. The whole blood was placed in a high-speed refrigerated centrifuge (8000 rpm, 0-4° C.) and centrifuged for 6 min. The supernatant of the blood plasma was separated and stored in a refrigerator for measurement. The centrifugation of all blood samples was completed within 30 min after blood collection. The concentration of Compound A in the blood plasma of SD rats was determined by LC-MS/MS method.
Analysis and processing of Data: The plasma concentration—time curve was plotted, and the pharmacokinetic parameters were calculated by using the non-compartment model in Phrsight Phoenix 6.1.

DPP-IV = DPP-IV (Homo sapiens, UniProt P27487); conditions: background; described in CN201010291056.9; cited from earlier work
DPP-IV, sequence (P27487 whole entry, species assumed): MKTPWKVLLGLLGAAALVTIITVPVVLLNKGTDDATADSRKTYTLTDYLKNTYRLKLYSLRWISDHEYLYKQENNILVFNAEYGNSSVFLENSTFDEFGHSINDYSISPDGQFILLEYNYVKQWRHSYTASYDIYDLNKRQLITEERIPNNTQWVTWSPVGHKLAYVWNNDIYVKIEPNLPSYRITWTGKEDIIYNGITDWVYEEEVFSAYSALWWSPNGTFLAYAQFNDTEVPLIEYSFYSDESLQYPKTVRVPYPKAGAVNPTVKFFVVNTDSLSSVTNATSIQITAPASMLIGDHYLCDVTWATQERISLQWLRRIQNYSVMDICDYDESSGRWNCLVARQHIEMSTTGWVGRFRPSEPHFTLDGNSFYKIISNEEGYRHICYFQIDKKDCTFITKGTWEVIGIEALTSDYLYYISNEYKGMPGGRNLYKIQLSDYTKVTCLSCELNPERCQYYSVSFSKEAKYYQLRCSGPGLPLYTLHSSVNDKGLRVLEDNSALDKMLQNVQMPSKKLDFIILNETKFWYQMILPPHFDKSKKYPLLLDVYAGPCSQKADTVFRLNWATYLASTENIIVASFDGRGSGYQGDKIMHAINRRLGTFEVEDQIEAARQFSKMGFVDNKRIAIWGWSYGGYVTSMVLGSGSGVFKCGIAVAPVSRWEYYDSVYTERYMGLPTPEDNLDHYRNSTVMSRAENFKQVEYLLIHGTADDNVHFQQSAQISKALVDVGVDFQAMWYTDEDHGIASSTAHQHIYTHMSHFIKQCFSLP

[2] = Investigation on the water solubility; assay type: physicochemical
Source text: Investigation on the Water Solubility of Crystal Form I of Dihydrochloride Salt of Compound A

[3] = Influence factor stability test (high temperature, high humidity, light irradiation); assay type: physicochemical
Description: The crystal form I of dihydrochloride salt of Compound A prepared from Example 1.
The Test Conditions for Investigating the Influencing Factors:
Each of the test samples was placed at a high temperature of 60° C. (packed with an plastic bag for packing drugs as the inner layer and an aluminium foil as the outer layer), a high humidity of RH75%±5% (uniformly spread on a dry and clean watch glass), and a light irradiation of 4500 Lx±500 Lx (uniformly spread on a dry and clean watch glass). Sampling was performed on Day 5 and Day 10 respectively, and Relevant Substance and the content of Compound A were measured and compared with those of the sample on Day 0.
(§2) The content was measured by using an External Standard method in accordance with the High Performance Liquid Chromatography in Chinese Pharmacopoeia, Appendix V D, Edition 2010.
(§3) Measurement of Relevant Substance
(§4) The Relevant Substance was measured by using an Area Normalization method in accordance with the High Performance Liquid Chromatography in Chinese Pharmacopoeia, Appendix V D, Edition 2010.

Long-term stability test = assay type: physicochemical; conditions: for Content of Compound A (%) / Content of Relevant Substance (%) / Properties: 25° C.±2° C., RH 60%±10%
Description: The Test Conditions for Investigating the Long-Term Stability:
Each of the test samples was placed at a temperature of 25° C.±2° C. and a humidity of RH 60%±10%. Sampling was performed at the end of Months 3, 6, 9, 12 and 18 respectively, and Relevant Substance and the content of Compound A were measured and compared with those of the sample on Day 0. During the investigation, the sample was packed with a plastic bag for packing drugs as the inner layer and an aluminium foil as the outer layer.
as §2, §3, §4

blood glucose = assay: Oral Glucose Tolerance Test (OGTT) in mice; assay type: in vivo, Mice C57BL/6; conditions: for inhibition ratio for the blood glucose AUC: glucose 3 g/kg
Description: as §1
Experimental animals: Mice C57BL/6, quantity 40.
On the day before the test, the food for mice was removed at 5 p.m., and the mice were fasted overnight. On the second day, the fasting blood glucose of each mouse was checked at 9 a.m. and recorded as −30 min blood glucose. The body weight was weighed and recorded. After balancing the blood glucose level and body weight, the mice were randomly divided into four groups, namely Background Control group, Vehicle Control group, Dosing group 1 and Dosing group 2. To the later three groups, a vehicle (0.9% sodium chloride injection solution), 1 mg/kg test sample and 3 mg/kg test sample was administered respectively, and the volume administered was 10 mL/kg. The blood glucose of each mouse was measured and recorded as 0 min blood glucose 30 minutes after the intragastric administration. Afterwards glucose was further administered via intragastric administration at a dose of 3 g/kg to the Vehicle Control group, Dosing group 1 and Dosing group 2, and 0.9% sodium chloride injection solution was administered via intragastric administration to the Background Control group at an intragastric administration volume of 10 mL/kg. Then, the blood glucose levels were measured at 20, 40, 60 and 120 minutes after the administration of glucose or sodium chloride solution.
Analysis and Processing of the Data:
The area under the time-blood glucose curve of the OGTT (Oral Glucose Tolerance Test) (AUC) was calculated. A net variable AUC (ΔAUC) was obtained by subtracting the AUC of Background Control group from that of Vehicle Control group, Dosing groups 1 and 2. The inhibition ratio (%)=100×(ΔAUCVehicle Control group-ΔAUC)/ΔAUCVehicle Control group, wherein ΔAUC is the net variable AUC of each Dosing group, and ΔAUCVehicle Control group is the net variable AUC of Vehicle Control group. The data of Dosing groups were compared with that of Vehicle Control group by using t-test value analysis, and the difference was considered significant at p<0.05.

[4] = intravenous injection, 10 mg/kg (in terms of Compound A)

bioavailability ([1]; both sexes, Sprague-Dawley, rat, plasma, oral, intragastric vs intravenous, 10 mg/kg (in terms of Compound A), read-out: bioavailability (F %)): 96.6%
Compound: Cc1cc(N2CCC[C@@H](N)C2)c2c(n1)n(C)c(=O)n2Cc1ccccc1C#N

Water solubility [2]: <0.1 mg/mL
Water solubility (in words) [2]: hardly dissolved or insoluble in water
Compound: Cc1cc(N2CCC[C@@H](N)C2)c2c(n1)n(C)c(=O)n2Cc1ccccc1C#N [Compound A, (R)-2-[[7-(3-aminopiperidin-1-yl)-3,5-dimethyl-2-oxo-2,3-dihydro-1H-imidazo[4,5-b]pyridin-1-yl]methyl]benzonitrile]
inhibitory effect for DPP-IV (in words) (DPP-IV): strong inhibitory effect
selectivity for DPP-IV (in words) (DPP-IV): very high selectivity

in vivo bioavailability (in words) [1]: high
apparent volume of distribution (Vd) [1, 4]: 6.17 L/kg
plasma clearance (CL) [1, 4]: 40 mL/min/kg
Content of Compound A (%) ([3]; 60° C., Day 5): 98.80%
Content of Relevant Substance (%) ([3]; 60° C., Day 5): 0.156%
Properties ([3]; 60° C., Day 5): white crystalline
Content of Compound A (%) ([3]; 60° C., Day 10): 99.42%
Content of Relevant Substance (%) ([3]; 60° C., Day 10): 0.142%
Properties ([3]; 60° C., Day 10): white crystalline
Content of Compound A (%) ([3]; 4500Lx ± 500Lx, Day 5): 98.09%
Content of Relevant Substance (%) ([3]; 4500Lx ± 500Lx, Day 5): 0.194%
Properties ([3]; 4500Lx ± 500Lx, Day 5): white crystalline
Content of Compound A (%) ([3]; 4500Lx ± 500Lx, Day 10): 99.17%
Content of Relevant Substance (%) ([3]; 4500Lx ± 500Lx, Day 10): 0.159%
Properties ([3]; 4500Lx ± 500Lx, Day 10): white crystalline
Content of Compound A (%) ([3]; Day 0): 99.16%
Content of Relevant Substance (%) ([3]; Day 0): 0.151%
Properties ([3]; Day 0): white crystalline
Content of Compound A (%) ([3]; RH 75% ± 5%, Day 5): 99.30%
Content of Relevant Substance (%) ([3]; RH 75% ± 5%, Day 5): 0.200%
Properties ([3]; RH 75% ± 5%, Day 5): white crystalline
Content of Compound A (%) ([3]; RH 75% ± 5%, Day 10): 99.55%
Content of Relevant Substance (%) ([3]; RH 75% ± 5%, Day 10): 0.171%
Properties ([3]; RH 75% ± 5%, Day 10): white crystalline
Relevant Substance and the content of Compound A (change, in words) ([3]; high temperature, high humidity and light irradiation): substantially unchanged
Content of Compound A (%) (Long-term stability test; Month 0): 99.53%
Content of Relevant Substance (%) (Long-term stability test; Month 0): 0.211%
Properties (Long-term stability test; Month 0): white crystalline
Content of Compound A (%) (Long-term stability test; Month 3): 99.32%
Content of Relevant Substance (%) (Long-term stability test; Month 3): 0.251%
Properties (Long-term stability test; Month 3): white crystalline
Content of Compound A (%) (Long-term stability test; Month 6): 99.19%
Content of Relevant Substance (%) (Long-term stability test; Month 6): 0.246%
Properties (Long-term stability test; Month 6): white crystalline
Content of Compound A (%) (Long-term stability test; Month 9): 98.99%
Content of Relevant Substance (%) (Long-term stability test; Month 9): 0.248%
Properties (Long-term stability test; Month 9): white crystalline
Content of Compound A (%) (Long-term stability test; Month 12): 99.17%
Content of Relevant Substance (%) (Long-term stability test; Month 12): 0.221%
Properties (Long-term stability test; Month 12): white crystalline
Content of Compound A (%) (Long-term stability test; Month 18): 99.37%
Content of Relevant Substance (%) (Long-term stability test; Month 18): 0.221%
Properties (Long-term stability test; Month 18): white crystalline
Relevant Substance and the content of Compound A (change, in words) (Long-term stability test; long-term stability investigating test): substantially unchanged
Water solubility [2]: >1000 mg/mL
Water solubility (in words) [2]: dissolved very easily in water
Compound: Cc1cc(N2CCC[C@@H](N)C2)c2c(n1)n(C)c(=O)n2Cc1ccccc1C#N [crystal form I of dihydrochloride salt of Compound A]
effect for reducing blood glucose (in words) (blood glucose; mice C57BL/6): significant effect for reducing blood glucose
inhibition ratio for the blood glucose AUC (blood glucose; mice C57BL/6, 1 mg/kg intragastric): 57%
inhibition ratio for the blood glucose AUC (blood glucose; mice C57BL/6, 3 mg/kg intragastric): 65%
